For one assay, the system named is MES-SA cells. Briefly: Caspase activation, FLICA polycaspase assay with flow cytometry. The class given is cell-based, human. To be noted: 10 μM. As for the experimental part:
MES-SA cells were treated for 1 h at 37 or 42° C. with Tat-ELP-GFLG-DOX (SEQ ID NO: 3), the control construct lacking the Tat sequence, with free DOX. Cells were harvested after the 1 h exposure, and caspase activity was detected using a fluorescent caspase inhibitor (Immunochemistry Technologies, Bloomington, Minn.) and flow cytometry.
Caspase activation was measured using a carboxyfluorescein FLICA polycaspase assay (Immunochemistry Technologies, Bloomington, Minn.). Cells were treated as described above with the indicated protein, collected by trypsinization, and stained for 2 h at 37° C. with the carboxyfluorescein FLICA reagent as described by the manufacturer. Cells were rinsed twice and analyzed for caspase activation by flow cytometry using a Cytomics FC 500 flow cytometer (n=5,000 cells). Forward versus side scatter gating was used to eliminate cell debris from the analysis, and a histogram of fluorescein fluorescence (channel FL1) was bimodal with peaks for caspase positive and caspase negative cells. The percentage of caspase positive cells was determined from the histograms and expressed as an average of 3 experiments.
MES-SA cells were treated as described above, cells were harvested after the 1 h exposure, and caspase activity was detected using a fluorescent caspase inhibitor and flow cytometric analysis. […] Cell numbers under each peak were quantified and averaged to determine the percentage of the cell population in which caspases were activated under each treatment condition. […] In fact, the percent of caspase positive cells was enhanced almost 4 fold when cells were treated with Tat-ELP1-GFLG-Dox (SEQ ID NO: 3) at 42° C. versus 37° C. (p<0.05).

Assay [1] has as its system MES-SA uterine sarcoma cells. The experiment in a line: Polypeptide uptake by flow cytometry of Dox fluorescence. The class given is cell-based, human. As for the experimental part:
In order to test whether the induction of ELP aggregation with hyperthermia can enhance the cellular uptake of the polypeptide, MES-SA uterine sarcoma cells were incubated with Tat-ELP-GFLG-DOX (SEQ ID NO: 3) for 1 h at either 37 or 42° C. Cells were then analyzed by flow cytometry, using the natural DOX fluorescence to quantify the amount of drug in the cells. When treated with the ELP1 containing construct, which aggregates at 40° C., the amount of drug delivered to the cells increases almost 2-fold (FIG. 10). […] This illustrates that the enhanced uptake observed after hyperthermia is the result of the ELP phase transition, not nonspecific effects of hyperthermia.
1.6. Polypeptide Uptake. Cells were treated with 20 μM Tat-ELP1-GFLG-Dox (SEQ ID NO: 3), Tat-ELP2-GFLG-Dox (SEQ ID NO: 3), or control polypeptides lacking the Tat sequence as described above. Duplicate plates were treated for 1 h at 37° C. and 42° C. Cells were rinsed with PBS and harvested using nonenzymatic cell dissociation buffer (Invitrogen), centrifuged for 2 min, and resuspended in 0.5 ml PBS. Total uptake of the doxorubicin labeled polypeptides was measured using the intrinsic Dox fluorescence by a Cytomics FC 500 flow cytometer (Beckman Coulter, Fullerton, Calif.). Forward versus side scatter gating was used to remove cell debris from the analysis, and Dox fluorescence was measured using FL3. Each histogram was a unimodal peak (n=5000 cells), and the peak mean was normalized to propidium standard beads.
3.3. Cellular Uptake of ELP-delivered Doxorubicin. MES-SA uterine sarcoma cells were used in this study to evaluate the efficiency of ELP-mediated cellular delivery of doxorubicin. […] After harvesting the cells with non-enzymatic cell dissociation buffer to prevent degradation of polypeptide attached to the cell surface, the non-fixed cells were analyzed by flow cytometry to measure the Dox fluorescence. […] Cellular fluorescence was increased over 2 fold when the MES-SA cells were treated with Tat-ELP1-GFLG-Dox (SEQ ID NO: 3) at 42° C. rather than 37° C. […]

For Tat-ELP1-GFLG-Dox, in the assay on MES-SA cells (1 h), the “Enhancement of percent caspase positive cells at 42° C. versus 37° C.” value is given as ~4 fold. Moreover, the “Caspase activation / apoptosis induction” value is reported as “slightly above control levels” with MES-SA cells (1 h at 37° C.) and “significantly higher proportion of the population” in the assay with MES-SA cells (1 h at 42° C.). Besides, the “Increase of drug delivered to cells at 42° C. versus 37° C.” value in assay [1] (10 μM, 1 h (FIG. 10)) is listed as ~2 fold. For the same substance, the “Increase of cellular fluorescence at 42° C. versus 37° C.” value in assay [1] (20 μM, 1 h) is reported as “over 2 fold”. Further, the “Uptake relative to ELP1-GFLG-Dox” value in assay [1] (20 μM, 1 h, 42° C.) was determined as 6 fold.
